This assay deals with T1, VEGF receptor KDR (VEGFR2) (Homo sapiens, UniProt P35968).
T1 construct: made in house; host or cells: Sf9 cells (Spodoptera frugiperda), baculovirus
T1 sequence (P35968 806-1356): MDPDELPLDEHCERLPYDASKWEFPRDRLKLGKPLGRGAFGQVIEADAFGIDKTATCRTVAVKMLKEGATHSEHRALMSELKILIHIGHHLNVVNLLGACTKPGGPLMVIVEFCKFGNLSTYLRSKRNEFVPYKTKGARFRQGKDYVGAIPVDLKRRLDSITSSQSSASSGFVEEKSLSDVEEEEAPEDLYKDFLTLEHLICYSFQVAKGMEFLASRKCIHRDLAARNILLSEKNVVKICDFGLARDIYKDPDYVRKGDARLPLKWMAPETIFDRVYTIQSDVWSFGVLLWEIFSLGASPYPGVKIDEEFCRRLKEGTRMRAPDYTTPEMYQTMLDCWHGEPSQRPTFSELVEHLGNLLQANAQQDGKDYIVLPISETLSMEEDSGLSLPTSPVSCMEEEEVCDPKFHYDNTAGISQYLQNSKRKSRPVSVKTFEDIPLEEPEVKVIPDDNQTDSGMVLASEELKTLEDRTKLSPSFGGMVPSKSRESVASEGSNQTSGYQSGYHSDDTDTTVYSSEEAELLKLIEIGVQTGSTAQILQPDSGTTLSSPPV
Briefly: In vitro receptor tyrosine kinase assay (VEGF receptor KDR), DELFIA. Format: biochemical. The following applies: recombinant GST-VEGFR2 (806-1356), ATP 0.6 uM, enzyme 5 nM; read-out: VEGFR_IC50_UM. The source says:
In Vitro Receptor Tyrosine Kinase Assay (VEGF receptor KDR)
This test measures the ability of compounds to inhibit the enzymatic activity of recombinant human VEGF receptor enzymatic activity.
A 1.6-kb cDNA corresponding to the catalytic domain of VEGFR2 (KDR) (Genbank accession number AF035121 amino acid 806 to 1356) is cloned into the Pst I site of the pDEST20 Gateway vector (Invitrogen) for the production of a GST-tagged version of that enzyme. This construct is used to generate recombinant baculovirus using the Bac-to-Bac™ system according to the manufacturer's instructions (Invitrogen).
The GST-VEGFR2806-1356 protein is expressed in Sf9 cells (Spodoptera frugiperda) upon infection with recombinant baculovirus construct. Briefly, Sf9 cells grown in suspension and maintained in serum-free medium (Sf900 II supplemented with gentamycin) at a cell density of about 2×10^6 cells/ml are infected with the above-mentioned viruses at a multiplicity of infection (MOI) of 0.1 during 72 hours at 27° C. with agitation at 120 rpm on a rotary shaker. Infected cells are harvested by centrifugation at 398g for 15 min. Cell pellets are frozen at −80° C. until purification is performed.
All steps described in cell extraction and purification are performed at 4° C. Frozen Sf9 cell pellets infected with the GST-VEGFR2806-1356 recombinant baculovirus are thawed and gently resuspended in Buffer A (PBS pH 7.3 supplemented with 1 μg/ml pepstatin, 2 μg/ml Aprotinin and leupeptin, 50 μg/ml PMSF, 50 μg/ml TLCK and 10 μM E64 and 0.5 mM DTT) using 3 ml of buffer per gram of cells. Suspension is Dounce homogenized and 1% Triton X-100 is added to the homogenate after which it is centrifuged at 22500 g, 30 min., 4 °C. The supernatant (cell extract) is used as starting material for purification of GST-VEGFR2806-1356.
The supernatant is loaded onto a GST-agarose column (Sigma) equilibrated with PBS pH 7.3. Following a four column volume (CV) wash with PBS pH 7.3+1% Triton X-100 and 4 CV wash with buffer B (50mM Tris pH 8.0, 20% glycerol and 100mM NaCl), bound proteins are step eluted with 5 CV of buffer B supplemented with 5 mM DTT and 15 mM glutathion. GST-VEGFR2806-1356 enriched fractions from this chromatography step are pooled based on U.V. trace i.e. fractions with high 0.D.280. Final GST-VEGFR2806-1356 protein preparations concentrations are about 0.7 mg/ml with purity approximating 70%. Purified GST-VEGFR2806-1356 protein stocks are aliquoted and frozen at −80° C. prior to use in enzymatic assay.
Inhibition of VEGFR/KDR is measured in a DELFIATM assay (Perkin Elmer). The substrate poly(Glu4, Tyr) is immobilized onto black high-binding polystyrene 96-well plates. The coated plates are washed and stored at 4° C. During the assay, the enzyme is pre-incubated with inhibitor and Mg-ATP on ice in polypropylene 96-well plates for 4 minutes, and then transferred to the coated plates. The subsequent kinase reaction takes place at 30° C. for 10-30 minutes. ATP concentrations in the assay are 0.6 uM for VEGFR/KDR (2× the Km). Enzyme concentration is 5 nM. After incubation, the kinase reactions are quenched with EDTA and the plates are washed. Phosphorylated product is detected by incubation with Europium-labeled anti-phosphotyrosine MoAb. After washing the plates, bound MoAb is detected by time-resolved fluorescence in a Gemini SpectraMax reader (Molecular Devices). Compounds are evaluated over a range of concentrations, and IC50 values (concentration of compounds giving 50% inhibition of enzymatic activity) are determined.
As to `CN(C)CCN(C)C(=O)C1CCCN(Cc2ccc(-c3cc4nccc(Oc5ccc(NC(=O)NC6CC6)cc5F)c4s3)nc2)C1` (centres unmarked) [Compound 4, 1-((6-(7-(4-(3-Cyclopropylureido)-2-fluorophenoxy)thieno [3,2-b]pyridin-2-yl)pyridin-3-yl)methyl)-N-(2-(dimethylamino)ethyl)-N-methylpiperidine-3-carboxamide], the IC50 amounted to 8 nM.
Consider `CNCCNC(=O)C1CCCN(Cc2ccc(-c3cc4nccc(Oc5ccc(NC(=O)NC6CC6)cc5F)c4s3)nc2)C1` (centres unmarked) [Compound 5, 1-((6-(7-(4-(3-Cyclopropylureido)-2-fluorophenoxy)thieno[3,2-b]pyridin-2-yl)pyridin-3-yl)methyl)-N-(2-(methylamino)ethyl)piperidine-3-carboxamide], for which the IC50 turned out to be 8 nM.
With `CN(C)[C@H]1CCN(C(=O)C2CCCN(Cc3ccc(-c4cc5nccc(Oc6ccc(NC(=O)NC7CC7)cc6F)c5s4)nc3)C2)C1` (stereo partly drawn) [Compound 6, 1-Cyclopropyl-3-(4-(2-(5-((3-((S)-3-(dimethylamino)pyrrolidine-1-carbonyl)piperidin-1-yl)methyl)pyridin-2-yl)thieno[3,2-b]pyridin-7-yloxy)-3-fluorophenyl)urea], the IC50 came out at 7 nM.
For `O=C(Nc1ccc(Oc2ccnc3cc(-c4ccc(CN5CCCC(C(=O)N6CC[C@@H](O)C6)C5)cn4)sc23)c(F)c1)NC1CC1` (stereo partly drawn) [Compound 7, 1-Cyclopropyl-3-(3-fluoro-4-(2-(5-((3-((R)-3-hydroxypyrrolidine-1-carbonyl)piperidin-1-yl)methyl)pyridin-2-yl)thieno[3,2-b]pyridin-7-yloxy)phenyl)urea] the value was 7 nM; for `O=C(Nc1ccc(Oc2ccnc3cc(-c4ccc(CN5CCCC(C(=O)N6CC[C@H](O)C6)C5)cn4)sc23)c(F)c1)NC1CC1` (stereo partly drawn) [Compound 8, 1-Cyclopropyl-3-(3-fluoro-4-(2-(5-((3-((S)-3-hydroxypyrrolidine-1-carbonyl)piperidin-1-yl)methyl)pyridin-2-yl)thieno[3,2-b]pyridin-7-yloxy)phenyl)urea], 3 nM.
As to `O=C(Nc1ccc(Oc2ccnc3cc(-c4ccc(CN5CCCC(C(=O)NC[C@@H](O)CO)C5)cn4)sc23)c(F)c1)NC1CC1` (stereo partly drawn) [Compound 9, 1-((6-(7-(4-(3-Cyclopropylureido)-2-fluoro-phenoxy)thieno[3,2-b]pyridin-2-yl)pyridin-3-yl)methyl)-N-((R)-2,3-dihydroxypropyl)piperidine-3-carboxamide], the IC50 was determined as 11 nM.
`CN(C)CCNC(=O)[C@@H]1CCCN(Cc2ccc(-c3cc4nccc(Oc5ccc(NC(=O)NC6CC6)cc5F)c4s3)nc2)C1` [Compound 10, (R)-1-((6-(7-(4-(3-Cyclopropylureido)-2-fluorophenoxy)thieno[3,2-b]pyridin-2-yl)pyridin-3-yl)methyl)-N-(2-(dimethylamino)ethyl)piperidine-3-carboxamide]: the IC50 was determined as 7 nM.
For `CN(CCO)C(=O)[C@H]1CCCN(Cc2ccc(-c3cc4nccc(Oc5ccc(NC(=O)NC6CC6)cc5F)c4s3)nc2)C1` [Compound 11, (S)-1-((6-(7-(4-(3-Ccyclopropylureido)-2-fluorophenoxy)thieno[3,2-b]pyridin-2-yl)pyridin-3-yl)methyl)-N-(2-hydroxyethyl)-N-methylpiperidine-3-carboxamide] the value was 7 nM; for `CN(CCO)C(=O)[C@@H]1CCCN(Cc2ccc(-c3cc4nccc(Oc5ccc(NC(=O)NC6CC6)cc5F)c4s3)nc2)C1` [Compound 12, (R)-1-((6-(7-(4-(3-Cyclopropylureido)-2-fluorophenoxy)thieno[3,2-b]pyridin-2-yl)pyridin-3-yl)methyl)-N-(2-hydroxyethyl)-N-methylpiperidine-3-carboxamide], 6 nM.
`CN(C)CCNC(=O)[C@H]1CCCN(Cc2ccc(-c3cc4nccc(Oc5ccc(NC(=O)NC6CC6)cc5F)c4s3)nc2)C1` [Compound 13, (S)-1-((6-(7-(4-(3-Cyclopropylureido)-2-fluorophenoxy)thieno[3,2-b]pyridin-2-yl)pyridin-3-yl)methyl)-N-(2-(dimethylamino)ethyl)piperidine-3-carboxamide]: the IC50 came to 8 nM.
For `CC(=O)SCC(=O)N1CCN(Cc2ccc(-c3cc4nccc(Oc5ccc(NC(=O)NC6CC6)cc5F)c4s3)nc2)CC1` [Compound 22, S-2-(4-((6-(7-(4-(3-Cyclopropylureido)-2-fluorophenoxy)thieno[3,2-b]pyridin-2-yl)pyridin-3-yl)methyl)piperazin-1-yl)-2-oxoethyl ethanethioate] the value was 15 nM; for `C[C@@H]1CN(C(=O)CO)CCN1Cc1ccc(-c2cc3nccc(Oc4ccc(NC(=O)NC5CC5)cc4F)c3s2)nc1` [Compound 26, (R)-1-Cyclopropyl-3-(3-fluoro-4-(2-(5-((4-(2-hydroxyacetyl)-2-methylpiperazin-1-yl)methyl)pyridin-2-yl)thieno[3,2-b]pyridin-7-yloxy)phenyl)urea], 4 nM; for `CNCC(=O)N1CCN(Cc2ccc(-c3cc4nccc(Oc5ccc(NC(=O)NC6CC6)cc5F)c4s3)nc2)CC1` [Compound 28, 1-Cyclopropyl-3-(3-fluoro-4-(2-(5-((4-(2-(methylamino)acetyl)piperazin-1-yl)methyl)pyridin-2-yl)thieno[3,2-b]pyridin-7-yloxy)phenyl)urea], 5 nM.
Regarding `C[C@@H](O)CN1CCN(Cc2ccc(-c3cc4nccc(Oc5ccc(NC(=O)NC6CC6)cc5F)c4s3)nc2)CC1` [Compound 29, (R)-1-Cyclopropyl-3-(3-fluoro-4-(2-(5-((4-(2-hydroxypropyl)piperazin-1-yl)methyl)pyridin-2-yl)thieno[3,2-b]pyridin-7-yloxy)phenyl)urea], the IC50 is 5 nM.
Regarding `COCCOCCOCC(=O)NC1CCN(Cc2ccc(-c3cc4nccc(Oc5ccc(NC(=O)NC6CC6)cc5F)c4s3)nc2)CC1` [Compound 31], the IC50 stood at 17 nM.
Consider `COCC(=O)N1CCN(Cc2ccc(-c3cc4nccc(Oc5ccc(NC(=O)NC6CC6)cc5F)c4s3)nc2)CC1` [Compound 32, 1-Cyclopropvl-3-(3-fluoro-4-(2-(5-((4-(2-methoxyacetyl)piperazin-1-yl)methyl)pyridin-2-yl)thieno[3,2-b]pyridin-7-yloxy)phenyl)urea], for which the IC50 was found to be 6 nM.
For `C[C@@H]1CN(Cc2ccc(-c3cc4nccc(Oc5ccc(NC(=O)NC6CC6)cc5F)c4s3)nc2)CCN1C(=O)CO` [Compound 33] the value was 7 nM; for `CC(=O)OCC(=O)OCC(=O)N1CCN(Cc2ccc(-c3cc4nccc(Oc5ccc(NC(=O)NC6CC6)cc5F)c4s3)nc2)CC1` [Compound 34, 2-(4-((6-(7-(4-(3-Cyclopropylureido)-2-fluorophenoxy)thieno[3,2-b]pyridin-2-yl)pyridin-3-yl)methyl)piperazin-1-yl)-2-oxoethyl 2-acetoxyacetate], 5 nM.
`CC(=O)OC(C)(C)C(=O)N1CCN(Cc2ccc(-c3cc4nccc(Oc5ccc(NC(=O)NC6CC6)cc5F)c4s3)nc2)CC1` [Compound 35, 1-(4-((6-(7-(4-(3-Cyclopropylureido)-2-fluorophenoxy)thieno[3,2-b]pyridin-2-yl)pyridin-3-yl)methyl)piperazin-1-yl)-2-methyl-1-oxopropan-2-yl acetate]: the IC50 came out at 4 nM.
Take `COCCOCCOC(=O)N1CCN(Cc2ccc(-c3cc4nccc(Oc5ccc(NC(=O)NC6CC6)cc5F)c4s3)nc2)CC1` [Compound 75, 2-(2-Methoxyethoxy)ethyl 4-((6-(7-(4-(3-cyclopropylureido)-2-fluorophenoxy)thieno[3,2-b]pyridin-2-yl)pyridin-3-yl)methyl)piperazine-1-carboxylate]: the IC50 was 16 nM.
